Source: US4233310A, “Antiarteriosclerotic N-(mercaptoacyl)-histidines” (Santen Pharmaceutical Co., Ltd., priority 1976, dated 1980)

How the values were obtained:
[1] = Hypolipid action in rats fed stock diet (serum and liver lipids); assay type: in vivo, Wistar strain male rats; conditions: 100 mg/kg orally twice a day for one week; for Liver lipid: Cholesterol content / Liver lipid: Phospholipid content / Liver lipid: Triglyceride content / Serum lipid: Cholesterol content / Serum lipid: Phospholipid content / Serum lipid: Triglyceride content: fasted 16 hours, mean ± standard; for Liver lipid: Cholesterol % / Liver lipid: Phospholipid % / Liver lipid: Triglyceride % / Serum lipid: Cholesterol % / Serum lipid: Phospholipid % / Serum lipid: Triglyceride %: % of control (control = 100)
Description: (§1) Pharmacological study (Hypolipid action)
(§2) A 2% aqueous solution of N-(mercaptoacetyl)-L-histidine and N-(3-mercaptopropionyl)-L-histidine, previously neutralized to pH 7.0 with sodium hydroxide, was administered orally to Wistar strain male rats at a dose of 100 mg/kg twice a day for one week. After the final administration of the test solution, the rats were fasted for 16 hours. Cholesterol, triglyceride and phospholipid levels in serum and liver were determined. The rats were divided into two groups. One group was fed a stock diet, and the other a 2% cholesterol-containing diet.
Group fed with stock diet

[2] = Hypolipid action in rats fed 2% cholesterol-containing diet (serum and liver lipids); assay type: in vivo, Wistar strain male rats; conditions: 100 mg/kg orally twice a day for one week; for Liver lipid: Cholesterol content / Liver lipid: Phospholipid content / Liver lipid: Triglyceride content / Serum lipid: Cholesterol content / Serum lipid: Phospholipid content / Serum lipid: Triglyceride content: fasted 16 hours, mean ± standard; for Liver lipid: Cholesterol % / Liver lipid: Phospholipid % / Liver lipid: Triglyceride % / Serum lipid: Cholesterol % / Serum lipid: Phospholipid % / Serum lipid: Triglyceride %: % of control (control = 100)
Description: as §1, §2
Group fed with cholesterol containing diet

[3] = Acute toxicity (LD50, intraperitoneal); conditions: rat, in vivo, ip, 5% solution pH 7.0, 7-day observation, Litchfield-Wilcoxon method
Description: ddy Strain male rats, 4 weeks of age, weighing 18-20 g were placed in a room of constant temperature and humidity (24°±1° C., 55+5%) and fed freely a pellet diet (CE-2, made by Clea Japan Inc.) and water for one week. Out of them, rats showing normal growth were selected for the experiment.
N-(3-mercaptopropionyl)-L-histidine was added to physiological saline, and was neutralized to pH 7.0 with 4 N sodium hydroxide a 5% solution of this solution was used as the test solution, being administered intraperitoneally to the rats.

SMILES | Liver lipid: Cholesterol content [1] | Liver lipid: Phospholipid content [1] | Liver lipid: Triglyceride content [1] | Serum lipid: Cholesterol content [1] | Serum lipid: Phospholipid content [1] | Serum lipid: Triglyceride content [1] | Liver lipid: Cholesterol % [1] | Liver lipid: Phospholipid % [1] | Liver lipid: Triglyceride % [1] | Serum lipid: Cholesterol % [1] | Serum lipid: Phospholipid % [1] | Serum lipid: Triglyceride % [1] | Liver lipid: Cholesterol content [2] | Liver lipid: Phospholipid content [2] | Liver lipid: Triglyceride content [2] | Serum lipid: Cholesterol content [2] | Serum lipid: Phospholipid content [2] | Serum lipid: Triglyceride content [2] | Liver lipid: Cholesterol % [2] | Liver lipid: Phospholipid % [2] | other results
O=C(CS)N[C@@H](Cc1c[nH]cn1)C(=O)O [Compound 1, N-(mercaptoacetyl)-L-histidine] | 19.7 ± 0.8 mg/total liver weight | 175.1 ± 7.3 mg/total liver weight | 24.4 ± 2.0 mg/total liver weight | 53.2 ± 1.9 mg/dL | 95.1 ± 3.2 mg/dL | 56.0 ± 5.6 mg/dL | 89.5% | 89.7% | 61.5% | 83.6% | 83.9% | 65.0% | 52.4 ± 3.6 mg/total liver weight | 112.6 ± 5.8 mg/total liver weight | 17.0 ± 1.4 mg/total liver weight | 269.5 ± 4.8 mg/dL | 178.6 ± 9.8 mg/dL | 81.4 ± 10.2 mg/dL | 83.4% | 93.2% | Liver lipid: Triglyceride % [2]: 97.7%; Serum lipid: Cholesterol % [2]: 88.7%; Serum lipid: Phospholipid % [2]: 87.8%; Serum lipid: Triglyceride % [2]: 71.6%
O=C(CCS)N[C@@H](Cc1c[nH]cn1)C(=O)O [Compound 2, N-(3-mercaptopropionyl)-L-histidine] | 18.9 ± 0.4 mg/total liver weight | 163.6 ± 1.7 mg/total liver weight | 30.8 ± 4.5 mg/total liver weight | 45.4 ± 0.4 mg/dL | 93.4 ± 4.8 mg/dL | 49.5 ± 5.5 mg/dL | 85.9% | 83.8% | 77.6% | 71.4% | 82.4% | 57.5% | 60.3 ± 4.0 mg/total liver weight | 116.4 ± 4.2 mg/total liver weight | 17.1 ± 1.5 mg/total liver weight | 246.9 ± 27.8 mg/dL | 173.9 ± 7.0 mg/dL | 79.2 ± 4.9 mg/dL | 96.0% | 96.4% | Liver lipid: Triglyceride % [2]: 98.3%; Serum lipid: Cholesterol % [2]: 81.4%; Serum lipid: Phospholipid % [2]: 85.5%; Serum lipid: Triglyceride % [2]: 69.7%; LD50 at 168 h [3]: 4040 mg/kg
